Assay: xn = mol fraction of the nth substance listed
Details: 96.7 kPa, Liquid; for viscosity: Capillary tube (Ostwald / Ubbelohde) method; for mass density: Vibrating tube method

CCCCCCn1cc[n+](C)c1.[Cl-] [1-hexyl-3-methylimidazolium chloride] + CC(=O)N(C)C
Details | mass density [kg/m3] | viscosity [mPa·s]
303.15 K, x1 = 0.155 | 967.16 | 3.756
303.15 K, x1 = 0.301 | 989.75 | 14.88
303.15 K, x1 = 0.392 | 999.94 | 35.44
303.15 K, x1 = 0.503 | 1009.66 | 92.11
303.15 K, x1 = 0.63 | 1018.78 | 295.88
303.15 K, x1 = 0.794 | 1027.67 | 917.88
303.15 K, x1 = 0.887 | 1032.11 | 2891.3
303.15 K, x1 = 1 | 1036.07 | 5718.5
308.15 K, x1 = 0.155 | 962.92 | 3.352
308.15 K, x1 = 0.301 | 986.11 | 12.57
308.15 K, x1 = 0.392 | 996.46 | 28.6
308.15 K, x1 = 0.503 | 1006.34 | 70.17
308.15 K, x1 = 0.63 | 1015.69 | 212.96
308.15 K, x1 = 0.794 | 1024.64 | 624.84
308.15 K, x1 = 0.887 | 1029.11 | 1853.1
308.15 K, x1 = 1 | 1033.22 | 3430.8
313.15 K, x1 = 0.155 | 958.82 | 3.026
313.15 K, x1 = 0.301 | 982.47 | 10.74
313.15 K, x1 = 0.392 | 992.99 | 23.52
313.15 K, x1 = 0.503 | 1003.03 | 55.61
313.15 K, x1 = 0.63 | 1012.58 | 158.14
313.15 K, x1 = 0.794 | 1021.62 | 440.38
313.15 K, x1 = 0.887 | 1026.14 | 1212.9
313.15 K, x1 = 1 | 1030.38 | 2146.1
318.15 K, x1 = 0.155 | 954.87 | 2.739
318.15 K, x1 = 0.301 | 978.83 | 9.242
318.15 K, x1 = 0.392 | 989.54 | 19.54
318.15 K, x1 = 0.503 | 999.74 | 44.26
318.15 K, x1 = 0.63 | 1009.45 | 119.42
318.15 K, x1 = 0.794 | 1018.61 | 313.65
318.15 K, x1 = 0.887 | 1023.19 | 814.85
318.15 K, x1 = 1 | 1027.56 | 1390.4
323.15 K, x1 = 0.155 | 951 | 2.493
323.15 K, x1 = 0.301 | 975.21 | 8.018
323.15 K, x1 = 0.392 | 986.09 | 16.46
323.15 K, x1 = 0.503 | 996.46 | 35.84
323.15 K, x1 = 0.63 | 1006.33 | 91.95
323.15 K, x1 = 0.794 | 1015.58 | 229.39
323.15 K, x1 = 0.887 | 1020.2 | 563.41
323.15 K, x1 = 1 | 1024.75 | 928.1
328.15 K, x1 = 0.155 | 947.22 | 2.28
328.15 K, x1 = 0.301 | 971.59 | 7.038
328.15 K, x1 = 0.392 | 982.65 | 14
328.15 K, x1 = 0.503 | 993.19 | 29.41
328.15 K, x1 = 0.63 | 1003.22 | 71.92
328.15 K, x1 = 0.794 | 1012.63 | 171.63
328.15 K, x1 = 0.887 | 1017.33 | 400.32
328.15 K, x1 = 1 | 1021.92 | 638.79
333.15 K, x1 = 0.155 | 943.5 | 2.091
333.15 K, x1 = 0.301 | 967.98 | 6.213
333.15 K, x1 = 0.392 | 979.22 | 12.02
333.15 K, x1 = 0.503 | 989.93 | 24.45
333.15 K, x1 = 0.63 | 1000.11 | 57.41
333.15 K, x1 = 0.794 | 1009.73 | 130.32
333.15 K, x1 = 0.887 | 1014.53 | 291.17
333.15 K, x1 = 1 | 1019.13 | 453.59
338.15 K, x1 = 0.155 | 939.77 | 1.931
338.15 K, x1 = 0.301 | 964.37 | 5.522
338.15 K, x1 = 0.392 | 975.8 | 10.41
338.15 K, x1 = 0.503 | 986.68 | 20.82
338.15 K, x1 = 0.63 | 997.03 | 46.28
338.15 K, x1 = 0.794 | 1006.85 | 101.08
338.15 K, x1 = 0.887 | 1011.76 | 216.49
338.15 K, x1 = 1 | 1016.38 | 327.52
343.15 K, x1 = 0.155 | 935.94 | 1.786
343.15 K, x1 = 0.301 | 960.77 | 4.918
343.15 K, x1 = 0.392 | 972.39 | 9.14
343.15 K, x1 = 0.503 | 983.44 | 17.42
343.15 K, x1 = 0.63 | 993.95 | 37.9
343.15 K, x1 = 0.794 | 1003.99 | 79.83
343.15 K, x1 = 0.887 | 1009.01 | 163.62
343.15 K, x1 = 1 | 1013.65 | 243.04
348.15 K, x1 = 0.155 | 932.05 | 1.658
348.15 K, x1 = 0.301 | 957.18 | 4.443
348.15 K, x1 = 0.392 | 968.98 | 8.018
348.15 K, x1 = 0.503 | 980.22 | 14.93
348.15 K, x1 = 0.63 | 990.89 | 31.38
348.15 K, x1 = 0.794 | 1001.15 | 63.75
348.15 K, x1 = 0.887 | 1006.28 | 125.96
348.15 K, x1 = 1 | 1010.91 | 183.45
353.15 K, x1 = 0.155 | 928.09 | 1.542
353.15 K, x1 = 0.301 | 953.59 | 4.015
353.15 K, x1 = 0.392 | 965.58 | 7.115
353.15 K, x1 = 0.503 | 977 | 12.86
353.15 K, x1 = 0.63 | 987.84 | 26.46
353.15 K, x1 = 0.794 | 998.33 | 51.4
353.15 K, x1 = 0.887 | 1003.57 | 98.54
353.15 K, x1 = 1 | 1008.18 | 140.06
